Test system: 695427-040-R-J1-PDC complex spheroid viability
Experiment: Anticancer human tumor 695427-040-R-J1-PDC patient-derived colon adenocarcinoma cell line growth inhibition [RAS]
Settings: for IC50: curve of first compound; for viability, T/C: stronger effect = lower value; active = viability on the fitted dose curve at most 10% of control; inactive = the rest
In short: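 Agents were tested in combination matrices in half-log decrements from a top concentration at or near clinical Cmax (10 microM if undetermined). Targets were multi-cell spheroids of tumour lines plus HUVEC and MSC stromal cells.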

[1] = second compound 0.00316 µM, first compound 0.0316 µM
[2] = second compound 0.00316 µM, first compound 0.1 µM
[3] = second compound 0.00316 µM, first compound 0.316 µM
[4] = second compound 0.00316 µM, first compound 1 µM
[5] = second compound 0.00316 µM, first compound 3.16 µM
[6] = second compound 0.00316 µM, first compound 10 µM
[7] = second compound 0.01 µM, first compound 0.0316 µM
[8] = second compound 0.01 µM, first compound 0.1 µM
[9] = second compound 0.01 µM, first compound 0.316 µM
[10] = second compound 0.01 µM, first compound 1 µM
[11] = second compound 0.01 µM, first compound 3.16 µM
[12] = second compound 0.01 µM, first compound 10 µM
[13] = second compound 0.0316 µM, first compound 0.0316 µM
[14] = second compound 0.0316 µM, first compound 0.1 µM
[15] = second compound 0.0316 µM, first compound 0.316 µM
[16] = second compound 0.0316 µM, first compound 1 µM
[17] = second compound 0.0316 µM, first compound 3.16 µM
[18] = second compound 0.0316 µM, first compound 10 µM
[19] = second compound 0.1 µM, first compound 0.0316 µM
[20] = second compound 0.1 µM, first compound 0.1 µM
[21] = second compound 0.1 µM, first compound 0.316 µM
[22] = second compound 0.1 µM, first compound 1 µM
[23] = second compound 0.1 µM, first compound 3.16 µM
[24] = second compound 0.1 µM, first compound 10 µM
[25] = second compound 0.316 µM, first compound 0.0316 µM
[26] = second compound 0.316 µM, first compound 0.1 µM
[27] = second compound 0.316 µM, first compound 0.316 µM
[28] = second compound 0.316 µM, first compound 1 µM
[29] = second compound 0.316 µM, first compound 3.16 µM
[30] = second compound 0.316 µM, first compound 10 µM
[31] = second compound 1 µM, first compound 0.0316 µM
[32] = second compound 1 µM, first compound 0.1 µM
[33] = second compound 1 µM, first compound 0.316 µM
[34] = second compound 1 µM, first compound 1 µM
[35] = second compound 1 µM, first compound 3.16 µM
[36] = second compound 1 µM, first compound 10 µM
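Also: viability read after seven days of drug exposure.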
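For viability, T/C in this document: 100% = DMSO vehicle control viability.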

CC(=O)OC12COC1CC(O)C1(C)C(=O)C(O)C3=C(C)C(OC(=O)C(O)C(NC(=O)OC(C)(C)C)c4ccccc4)CC(O)(C(OC(=O)c4ccccc4)C21)C3(C)C (stereo not drawn) + C=CC(=O)N1CCN(c2nc(OCC3CCCN3C)nc3c(F)c(-c4nc(N)cc(C)c4C(F)(F)F)c(Cl)cc23)C(C)C1
inactive: viability, T/C [1] 67.3% | viability, T/C [2] 69% | viability, T/C [3] 74.2% | viability, T/C [4] 78.9% | viability, T/C [5] 91.5% | viability, T/C [6] 98% | viability, T/C [7] 71.8% | viability, T/C [8] 66.8% | viability, T/C [9] 71% | viability, T/C [10] 79.7% | viability, T/C [11] 93% | viability, T/C [12] 89.3% | viability, T/C [13] 71% | viability, T/C [14] 72.8% | viability, T/C [15] 77.2% | viability, T/C [16] 78% | viability, T/C [17] 83.7% | viability, T/C [18] 89.5% | viability, T/C [19] 70.6% | viability, T/C [20] 71.3% | viability, T/C [21] 74% | viability, T/C [22] 76.2% | viability, T/C [23] 93.6% | viability, T/C [24] 96.9% | viability, T/C [25] 75.2% | viability, T/C [26] 73.6% | viability, T/C [27] 83.8% | viability, T/C [28] 75% | viability, T/C [29] 93.1% | viability, T/C [30] 95.7% | viability, T/C [31] 76.4% | viability, T/C [32] 68.5% | viability, T/C [33] 77.3% | viability, T/C [34] 83.4% | viability, T/C [35] 88.7% | viability, T/C [36] 91.8%
> 10000 nM: IC50 (second compound 0.00316 µM) | IC50 (second compound 0.01 µM) | IC50 (second compound 0.0316 µM) | IC50 (second compound 0.1 µM) | IC50 (second compound 0.316 µM) | IC50 (second compound 1 µM)

CCc1c2c(nc3ccc(O)cc13)-c1cc3c(c(=O)n1C2)COC(=O)[C@]3(O)CC + C=CC(=O)N1CCN(c2nc(OCC3CCCN3C)nc3c(F)c(-c4nc(N)cc(C)c4C(F)(F)F)c(Cl)cc23)C(C)C1
162 nM: IC50 (second compound 1 µM)
129 nM: IC50 (second compound 0.0316 µM)
123 nM: IC50 (second compound 0.01 µM)
144 nM: IC50 (second compound 0.316 µM)
128 nM: IC50 (second compound 0.1 µM)
112 nM: IC50 (second compound 0.00316 µM)
inactive: viability, T/C (second compound 0.00316 µM, first compound 0.000949 µM) 88% | viability, T/C (second compound 0.00316 µM, first compound 0.003 µM) 88.2% | viability, T/C (second compound 0.00316 µM, first compound 0.00949 µM) 84.8% | viability, T/C (second compound 0.00316 µM, first compound 0.03 µM) 74.5% | viability, T/C (second compound 0.00316 µM, first compound 0.0949 µM) 54.3% | viability, T/C (second compound 0.00316 µM, first compound 0.3 µM) 25.5% | viability, T/C (second compound 0.01 µM, first compound 0.000949 µM) 98.8% | viability, T/C (second compound 0.01 µM, first compound 0.003 µM) 92.1% | viability, T/C (second compound 0.01 µM, first compound 0.00949 µM) 78.7% | viability, T/C (second compound 0.01 µM, first compound 0.03 µM) 72.9% | viability, T/C (second compound 0.01 µM, first compound 0.0949 µM) 58.4% | viability, T/C (second compound 0.01 µM, first compound 0.3 µM) 30.9% | viability, T/C (second compound 0.0316 µM, first compound 0.000949 µM) 92.7% | viability, T/C (second compound 0.0316 µM, first compound 0.003 µM) 88.1% | viability, T/C (second compound 0.0316 µM, first compound 0.00949 µM) 79.4% | viability, T/C (second compound 0.0316 µM, first compound 0.03 µM) 75.8% | viability, T/C (second compound 0.0316 µM, first compound 0.0949 µM) 60.9% | viability, T/C (second compound 0.0316 µM, first compound 0.3 µM) 25.6% | viability, T/C (second compound 0.1 µM, first compound 0.000949 µM) 94.8% | viability, T/C (second compound 0.1 µM, first compound 0.003 µM) 88.6% | viability, T/C (second compound 0.1 µM, first compound 0.00949 µM) 79.3% | viability, T/C (second compound 0.1 µM, first compound 0.03 µM) 68.9% | viability, T/C (second compound 0.1 µM, first compound 0.0949 µM) 60% | viability, T/C (second compound 0.1 µM, first compound 0.3 µM) 32% | viability, T/C (second compound 0.316 µM, first compound 0.000949 µM) 96% | viability, T/C (second compound 0.316 µM, first compound 0.003 µM) 91.9% | viability, T/C (second compound 0.316 µM, first compound 0.00949 µM) 82.7% | viability, T/C (second compound 0.316 µM, first compound 0.03 µM) 80% | viability, T/C (second compound 0.316 µM, first compound 0.0949 µM) 63.6% | viability, T/C (second compound 0.316 µM, first compound 0.3 µM) 28.3% | viability, T/C (second compound 1 µM, first compound 0.000949 µM) 93.2% | viability, T/C (second compound 1 µM, first compound 0.003 µM) 93.4% | viability, T/C (second compound 1 µM, first compound 0.00949 µM) 85.1% | viability, T/C (second compound 1 µM, first compound 0.03 µM) 85.3% | viability, T/C (second compound 1 µM, first compound 0.0949 µM) 62.4% | viability, T/C (second compound 1 µM, first compound 0.3 µM) 34.9%

NC1c2ccccc2OC12CCN(c1cnc3c(N4CCCc5ncccc54)n[nH]c3n1)CC2 (stereo not drawn) + C=CC(=O)N1CCN(c2nc(OCC3CCCN3C)nc3c(F)c(-c4nc(N)cc(C)c4C(F)(F)F)c(Cl)cc23)C(C)C1
1060 nM: IC50 (second compound 1 µM)
inactive: viability, T/C [1] 72.3% | viability, T/C [2] 68.1% | viability, T/C [3] 63.8% | viability, T/C [4] 57.2% | viability, T/C [5] 52.4% | viability, T/C [6] 44.9% | viability, T/C [7] 78.6% | viability, T/C [8] 73.3% | viability, T/C [9] 63.3% | viability, T/C [10] 59% | viability, T/C [11] 51.6% | viability, T/C [12] 41% | viability, T/C [13] 80.1% | viability, T/C [14] 73.6% | viability, T/C [15] 71.4% | viability, T/C [16] 56.8% | viability, T/C [17] 50.4% | viability, T/C [18] 43.1% | viability, T/C [19] 78.2% | viability, T/C [20] 74.8% | viability, T/C [21] 60.1% | viability, T/C [22] 56.9% | viability, T/C [23] 46.6% | viability, T/C [24] 41.9% | viability, T/C [25] 74.6% | viability, T/C [26] 68.4% | viability, T/C [27] 64.8% | viability, T/C [28] 60.2% | viability, T/C [29] 49.6% | viability, T/C [30] 41.2% | viability, T/C [31] 70.6% | viability, T/C [32] 62.2% | viability, T/C [33] 53.6% | viability, T/C [34] 52% | viability, T/C [35] 47.2% | viability, T/C [36] 36%
2160 nM: IC50 (second compound 0.1 µM)
4310 nM: IC50 (second compound 0.00316 µM)
3370 nM: IC50 (second compound 0.316 µM)
3210 nM: IC50 (second compound 0.01 µM)
2880 nM: IC50 (second compound 0.0316 µM)

Nc1ccn(C2OC(CO)C(O)C2(F)F)c(=O)n1 (stereo not drawn) + C=CC(=O)N1CCN(c2nc(OCC3CCCN3C)nc3c(F)c(-c4nc(N)cc(C)c4C(F)(F)F)c(Cl)cc23)C(C)C1
inactive: viability, T/C (second compound 0.00316 µM, first compound 0.00316 µM) 93.3% | viability, T/C (second compound 0.00316 µM, first compound 0.01 µM) 88.1% | viability, T/C [1] 77.5% | viability, T/C [2] 84.9% | viability, T/C [3] 72.1% | viability, T/C [4] 69.6% | viability, T/C (second compound 0.01 µM, first compound 0.00316 µM) 94.4% | viability, T/C (second compound 0.01 µM, first compound 0.01 µM) 87.2% | viability, T/C [7] 84.3% | viability, T/C [8] 74.3% | viability, T/C [9] 76.2% | viability, T/C [10] 69.5% | viability, T/C (second compound 0.0316 µM, first compound 0.00316 µM) 92.9% | viability, T/C (second compound 0.0316 µM, first compound 0.01 µM) 80.5% | viability, T/C [13] 77.9% | viability, T/C [14] 73.8% | viability, T/C [15] 76.5% | viability, T/C [16] 70.8% | viability, T/C (second compound 0.1 µM, first compound 0.00316 µM) 96.9% | viability, T/C (second compound 0.1 µM, first compound 0.01 µM) 78.4% | viability, T/C [19] 77.8% | viability, T/C [20] 80.2% | viability, T/C [21] 74.2% | viability, T/C [22] 72.9% | viability, T/C (second compound 0.316 µM, first compound 0.00316 µM) 93.8% | viability, T/C (second compound 0.316 µM, first compound 0.01 µM) 84.2% | viability, T/C [25] 91.3% | viability, T/C [26] 77.5% | viability, T/C [27] 80.4% | viability, T/C [28] 69.7% | viability, T/C (second compound 1 µM, first compound 0.00316 µM) 92.7% | viability, T/C (second compound 1 µM, first compound 0.01 µM) 85.5% | viability, T/C [31] 77.9% | viability, T/C [32] 81.5% | viability, T/C [33] 86.9% | viability, T/C [34] 69.7%
> 1000 nM: IC50 (second compound 0.00316 µM) | IC50 (second compound 0.01 µM) | IC50 (second compound 0.0316 µM) | IC50 (second compound 0.1 µM) | IC50 (second compound 0.316 µM) | IC50 (second compound 1 µM)
